These results are taken from patent publication US10124076B2, “Imaging agents and methods of use thereof” (Huntington Medical Research Institutes, priority 2007, dated 2018).

Data set [1] can be described thus: T1 relaxation time of the hyperpolarized product, experimentally determined. The data set is classed as physicochemical. Here is the method:
Sub-second carbon imaging is greatly simplified when the signal of interest exceeds the background signal from natural abundance resonances. This is possible when a ^13C hyperpolarized agent is injected. […] Long T1 (in excess of ten seconds) is obtained for ^13C in small molecules at sites where there is no directly attached proton. Deuteration can be used to achieve this (e.g., glucose) and it occurs naturally for carbonyls. Enhancements in excess of 1000 from hyperpolarization are obtained in the first 5 T1 (i.e., imaging and spectroscopy experiment should be accomplished within 100-225 seconds after hyperpolarizing the molecules). For the molecules proposed, the hyperpolarization decays with a time constant of 20-45 seconds (T1 relaxation time of the agent) and therefore long scan times are not feasible. In order to overcome this problem, the inventors have successfully reprogrammed several fast imaging pulse sequences with multinuclear capability (multinuclear pulse sequences, broadband amplifier, and multinuclear coils).
Specifically, the inventors have identified four water soluble biomolecules for hyperpolarization. The four molecules can be either commercially obtained or custom synthesized. In the cases of hyperpolarization by PASADENA, both the precursors and the hydrogenated products are water soluble and the hydrogenation experiments have achieved high yields. T1 times were experimentally determined.

The nature of data set [2]: DNP hyperpolarization in HyperSense polarizer, 13C NMR decay of magnetization. As to conditions: DNP hyperpolarized. An excerpt: FIG. 9. ^13C NMR spectrum of DNP hyperpolarized CD3 ^13COO^−Na using OX63 radical (Sample 1). The SNR from the spectral sequence depicted in FIG. 9 are shown in the corresponding table.
FIG. 10. 13C NMR spectrum of hyperpolarized CD3 ^13COO^−Na^+ using Finland radical (Sample 2). The SNR from the spectral sequence depicted in FIG. 10 are shown in the corresponding table.
C. A sample of the proposed molecule, Sodium ^13Cl-acetate-d3, was hyperpolarized in water with two different electron donors (FIGS. 9 & 10) in a DNP HyperSense polarizer, and the time course of the decay of the magnetization studied. The SNR obtained from the first spectrum collected from polarized sample 2 is clearly less than that obtained from sample 1, showing that Sodium acetate has a preference for the more polar radical OX63. Both OX63 and Finland are triaryl based radicals and are commercially available form Oxford Instruments, UK. Clearly, the inventors' molecule can render over 10,000 fold signal enhancement by DNP with very long T1 time. The polarization will survive around 325 seconds (5 T1). This allows a large enough time (>5 minutes) window to effectively monitor the first six minutes of uptake and metabolism of hyperpolarized sodium acetate within the glial cells of the rat brain by ^13C NMR.

Regarding “1-^13C glucose [perdeuterated 1-^13C of glucose]”, the “experimentally determined T1” value in data set [1] (1-13C of perdeuterated glucose) worked out at 20 s. For the same substance, the “time window of observing the transfer of polarization (5 T1)” value in data set [1] (hyperpolarized glucose metabolized to TCA cycle metabolites) was around 100 s.

For Sodium ^13Cl-acetate-d3, in data set [2], the “polarization survival time (5 T1)” value is “around 325 seconds”.

Turning to ^13C1-^13C5 deuterated glutamine, in data set [1] (Table 2, product of PASADENA or DNP hyperpolarization), the “T1 of the Product” value was found to be 40 s.
